In the NIST ThermoML archive (doi:10.1016/j.jct.2005.03.016):
± gives the expanded uncertainty stated by the source.

Test: xn = mol fraction of the nth substance listed
Conditions: Liquid, Vibrating tube method

CC1CCCCC1 [methylcyclohexane] + CCO
mass density [kg/m3]
Conditions	100 kPa	5000 kPa	10000 kPa	15000 kPa	20000 kPa	25000 kPa	30000 kPa	35000 kPa	40000 kPa	45000 kPa
313.15 K, x2 = 0.5	–	–	–	–	–	–	–	–	–	790.2 ± 0.7
313.15 K, x2 = 0.625	–	–	–	–	–	–	–	–	–	792.6 ± 0.7
313.15 K, x2 = 0.75	–	–	–	–	–	–	–	–	–	795.8 ± 0.6
313.15 K, x2 = 0.875	–	–	–	–	–	–	–	–	–	800.4 ± 0.6
323.15 K, x2 = 0	742.9 ± 0.3	747.7 ± 0.4	752.5 ± 0.4	756.9 ± 0.5	761.1 ± 0.6	765.1 ± 0.6	769 ± 0.7	772.6 ± 0.7	776.1 ± 0.8	779.5 ± 0.8
323.15 K, x2 = 0.052	742 ± 0.3	746.9 ± 0.4	751.7 ± 0.4	756.3 ± 0.5	760.5 ± 0.5	764.5 ± 0.6	768.4 ± 0.6	772.1 ± 0.7	775.6 ± 0.7	779.1 ± 0.8
323.15 K, x2 = 0.125	741.9 ± 0.3	746.8 ± 0.3	751.7 ± 0.4	756.2 ± 0.5	760.5 ± 0.5	764.6 ± 0.6	768.5 ± 0.6	772.2 ± 0.7	775.7 ± 0.7	779.2 ± 0.8
323.15 K, x2 = 0.25	742.4 ± 0.3	747.4 ± 0.3	752.3 ± 0.4	756.8 ± 0.4	761.2 ± 0.5	765.3 ± 0.5	769.2 ± 0.6	772.9 ± 0.6	776.5 ± 0.7	780 ± 0.7
323.15 K, x2 = 0.375	743.4 ± 0.2	748.5 ± 0.3	753.4 ± 0.4	758 ± 0.4	762.4 ± 0.5	766.5 ± 0.5	770.4 ± 0.6	774.2 ± 0.6	777.8 ± 0.7	781.2 ± 0.7
323.15 K, x2 = 0.5	745 ± 0.2	750.1 ± 0.3	755 ± 0.3	759.6 ± 0.4	764 ± 0.4	768.2 ± 0.5	772.1 ± 0.5	775.9 ± 0.6	779.5 ± 0.6	783 ± 0.7
323.15 K, x2 = 0.625	747.4 ± 0.2	752.4 ± 0.3	757.4 ± 0.3	762 ± 0.4	766.4 ± 0.4	770.5 ± 0.5	774.5 ± 0.5	778.2 ± 0.6	781.9 ± 0.6	785.3 ± 0.7
323.15 K, x2 = 0.75	750.7 ± 0.2	755.7 ± 0.2	760.6 ± 0.3	765.2 ± 0.4	769.6 ± 0.4	773.7 ± 0.5	777.7 ± 0.5	781.5 ± 0.6	785.1 ± 0.6	788.6 ± 0.7
323.15 K, x2 = 0.875	755.6 ± 0.2	760.6 ± 0.2	765.5 ± 0.3	770.1 ± 0.3	774.4 ± 0.4	778.5 ± 0.4	782.4 ± 0.5	786.2 ± 0.5	789.8 ± 0.6	793.3 ± 0.6
333.15 K, x2 = 0	733.9 ± 0.3	739 ± 0.4	744.1 ± 0.4	748.8 ± 0.5	753.3 ± 0.6	757.5 ± 0.6	761.5 ± 0.7	765.4 ± 0.7	769 ± 0.8	772.5 ± 0.8
333.15 K, x2 = 0.052	732.8 ± 0.3	738.1 ± 0.4	743.2 ± 0.4	748 ± 0.5	752.5 ± 0.5	756.8 ± 0.6	760.9 ± 0.7	764.7 ± 0.7	768.5 ± 0.8	772 ± 0.8
333.15 K, x2 = 0.125	732.4 ± 0.3	737.8 ± 0.4	742.9 ± 0.4	747.8 ± 0.5	752.3 ± 0.5	756.6 ± 0.6	760.7 ± 0.6	764.6 ± 0.7	768.4 ± 0.7	771.9 ± 0.8
333.15 K, x2 = 0.25	732.7 ± 0.3	738.1 ± 0.3	743.3 ± 0.4	748.2 ± 0.4	752.8 ± 0.5	757.1 ± 0.6	761.3 ± 0.6	765.2 ± 0.7	769 ± 0.7	772.6 ± 0.8
333.15 K, x2 = 0.375	733.7 ± 0.2	739.1 ± 0.3	744.4 ± 0.4	749.3 ± 0.4	753.9 ± 0.5	758.3 ± 0.5	762.4 ± 0.6	766.4 ± 0.6	770.2 ± 0.7	773.8 ± 0.7
333.15 K, x2 = 0.5	735.3 ± 0.2	740.7 ± 0.3	746 ± 0.3	750.9 ± 0.4	755.6 ± 0.5	759.9 ± 0.5	764.1 ± 0.6	768.1 ± 0.6	771.9 ± 0.7	775.5 ± 0.7
333.15 K, x2 = 0.625	737.6 ± 0.2	743 ± 0.3	748.3 ± 0.3	753.3 ± 0.4	757.9 ± 0.4	762.3 ± 0.5	766.4 ± 0.5	770.4 ± 0.6	774.2 ± 0.6	777.9 ± 0.7
333.15 K, x2 = 0.75	741 ± 0.2	746.4 ± 0.3	751.6 ± 0.3	756.6 ± 0.4	761.2 ± 0.4	765.5 ± 0.5	769.7 ± 0.5	773.7 ± 0.6	777.5 ± 0.6	781.1 ± 0.7
333.15 K, x2 = 0.875	746 ± 0.2	751.4 ± 0.2	756.6 ± 0.3	761.5 ± 0.4	766 ± 0.4	770.4 ± 0.5	774.5 ± 0.5	778.4 ± 0.6	782.2 ± 0.6	785.9 ± 0.7
343.15 K, x2 = 0	724.8 ± 0.3	730.4 ± 0.4	735.8 ± 0.4	740.8 ± 0.5	745.6 ± 0.6	750 ± 0.6	754.2 ± 0.7	758.2 ± 0.7	762.1 ± 0.8	765.7 ± 0.8
343.15 K, x2 = 0.052	723.4 ± 0.3	729.1 ± 0.4	734.6 ± 0.4	739.7 ± 0.5	744.5 ± 0.6	749 ± 0.6	753.3 ± 0.7	757.4 ± 0.7	761.3 ± 0.8	765 ± 0.8
343.15 K, x2 = 0.125	722.8 ± 0.3	728.6 ± 0.4	734.1 ± 0.4	739.3 ± 0.5	744.2 ± 0.5	748.7 ± 0.6	753 ± 0.7	757.1 ± 0.7	761 ± 0.8	764.8 ± 0.8
343.15 K, x2 = 0.25	722.9 ± 0.3	728.7 ± 0.3	734.3 ± 0.4	739.6 ± 0.5	744.5 ± 0.5	749.1 ± 0.6	753.5 ± 0.6	757.6 ± 0.7	761.5 ± 0.7	765.3 ± 0.8
343.15 K, x2 = 0.375	723.8 ± 0.2	729.6 ± 0.3	735.3 ± 0.4	740.5 ± 0.4	745.5 ± 0.5	750.1 ± 0.5	754.5 ± 0.6	758.6 ± 0.7	762.6 ± 0.7	766.4 ± 0.8
343.15 K, x2 = 0.5	725.3 ± 0.2	731.2 ± 0.3	736.9 ± 0.4	742.1 ± 0.4	747.1 ± 0.5	751.7 ± 0.5	756.1 ± 0.6	760.3 ± 0.6	764.3 ± 0.7	768.1 ± 0.7
343.15 K, x2 = 0.625	727.6 ± 0.2	733.5 ± 0.3	739.2 ± 0.3	744.4 ± 0.4	749.4 ± 0.4	754 ± 0.5	758.4 ± 0.6	762.6 ± 0.6	766.6 ± 0.7	770.4 ± 0.7
343.15 K, x2 = 0.75	731.1 ± 0.2	736.9 ± 0.3	742.5 ± 0.3	747.8 ± 0.4	752.7 ± 0.4	757.3 ± 0.5	761.7 ± 0.5	765.9 ± 0.6	769.8 ± 0.6	773.6 ± 0.7
343.15 K, x2 = 0.875	736.3 ± 0.2	742.1 ± 0.3	747.6 ± 0.3	752.8 ± 0.4	757.7 ± 0.4	762.3 ± 0.5	766.6 ± 0.5	770.8 ± 0.6	774.7 ± 0.6	778.4 ± 0.7
353.15 K, x2 = 0	715.7 ± 0.3	721.7 ± 0.4	727.4 ± 0.5	732.8 ± 0.5	737.8 ± 0.6	742.5 ± 0.6	747 ± 0.7	751.2 ± 0.8	755.2 ± 0.8	759 ± 0.9
353.15 K, x2 = 0.052	–	720.2 ± 0.4	726 ± 0.4	731.5 ± 0.5	736.6 ± 0.6	741.3 ± 0.6	745.8 ± 0.7	750.1 ± 0.7	754.2 ± 0.8	758 ± 0.8
353.15 K, x2 = 0.125	–	719.3 ± 0.4	725.3 ± 0.4	730.8 ± 0.5	736 ± 0.6	740.8 ± 0.6	745.3 ± 0.7	749.6 ± 0.7	753.7 ± 0.8	757.7 ± 0.8
353.15 K, x2 = 0.25	–	719.2 ± 0.3	725.2 ± 0.4	730.8 ± 0.5	736 ± 0.5	740.9 ± 0.6	745.5 ± 0.6	749.9 ± 0.7	754 ± 0.8	758 ± 0.8
353.15 K, x2 = 0.375	–	719.9 ± 0.3	726 ± 0.4	731.7 ± 0.4	736.9 ± 0.5	741.8 ± 0.6	746.4 ± 0.6	750.8 ± 0.7	755 ± 0.7	759 ± 0.8
353.15 K, x2 = 0.5	–	721.4 ± 0.3	727.5 ± 0.4	733.1 ± 0.4	738.4 ± 0.5	743.4 ± 0.5	748 ± 0.6	752.4 ± 0.6	756.6 ± 0.7	760.6 ± 0.8
353.15 K, x2 = 0.625	–	723.7 ± 0.3	729.8 ± 0.3	735.4 ± 0.4	740.7 ± 0.5	745.6 ± 0.5	750.3 ± 0.6	754.6 ± 0.6	758.8 ± 0.7	762.8 ± 0.7
353.15 K, x2 = 0.75	–	727.1 ± 0.3	733.2 ± 0.3	738.8 ± 0.4	744 ± 0.4	748.9 ± 0.5	753.6 ± 0.6	757.9 ± 0.6	762.1 ± 0.7	766.1 ± 0.7
353.15 K, x2 = 0.875	–	732.5 ± 0.3	738.4 ± 0.3	743.9 ± 0.4	749.1 ± 0.4	753.9 ± 0.5	758.5 ± 0.5	762.9 ± 0.6	767 ± 0.6	771 ± 0.7
